Source: the kinase profiling compilation of Christmann-Franck et al. (2016)

Experiments:
Assay in all cases: KINOMEscan competition binding
Conditions in all cases: compound 10.0 µM
RPS6KA6 KD1 (human) = RPS6KA6 KD1 (human) (UniProt Q9UK32)
MELK (human) = MELK (human) (UniProt Q14680)
CAMK1D (human) = CAMK1D (human) (UniProt Q8IU85)
TAOK3 (human) = TAOK3 (human) (UniProt Q9H2K8)
MAP4K3 (human) = MAP4K3 (human) (UniProt Q8IVH8)
LIMK1 (human) = LIMK1 (human) (UniProt P53667)
TSSK1B (human) = TSSK1B (human) (UniProt Q9BXA7)
PKMYT1 (human) = PKMYT1 (human) (UniProt Q99640)
SBK1 (human) = SBK1 (human) (UniProt Q52WX2)
GRK4 (human) = GRK4 (human) (UniProt P32298)
NTRK2 (human) = NTRK2 (human) (UniProt Q16620)
ACVRL1 (human) = ACVRL1 (human) (UniProt P37023)
TEK (human) = TEK (human) (UniProt Q02763)
GAK (human) = GAK (human) (UniProt O14976)
PRKCE (human) = PRKCE (human) (UniProt Q02156)
STK35 (human) = STK35 (human) (UniProt Q8TDR2)
PIM3 (human) = PIM3 (human) (UniProt Q86V86)
MAP3K9 (human) = MAP3K9 (human) (UniProt P80192)
EPHA7 (human) = EPHA7 (human) (UniProt Q15375)
RIPK1 (human) = RIPK1 (human) (UniProt Q13546)
CDK8 (human) = CDK8 (human) (UniProt P49336)
PRPF4B (human) = PRPF4B (human) (UniProt Q13523)
FGFR1 (human) = FGFR1 (human) (UniProt P11362)
NTRK1 (human) = NTRK1 (human) (UniProt P04629)
PKN1 (human) = PKN1 (human) (UniProt Q16512)
CSNK1A1L (human) = CSNK1A1L (human) (UniProt Q8N752)
[1] = target: TYK2 JH1 catalytic (human) (UniProt P29597)
PIK3C2G (human) = PIK3C2G (human) (UniProt O75747)
PIK3CB (human) = PIK3CB (human) (UniProt P42338)
PAK4 (human) = PAK4 (human) (UniProt O96013)
STK38 (human) = STK38 (human) (UniProt Q15208)
CDK18 (human) = CDK18 (human) (UniProt Q07002)
PIP5K1A (human) = PIP5K1A (human) (UniProt Q99755)
TYRO3 (human) = TYRO3 (human) (UniProt Q06418)
TGFBR1 (human) = TGFBR1 (human) (UniProt P36897)
DMPK (human) = DMPK (human) (UniProt Q09013)
CAMK2A (human) = CAMK2A (human) (UniProt Q9UQM7)
CDK13 (human) = CDK13 (human) (UniProt Q14004)
CRK2 (P.falciparum) = CRK2 (P.falciparum) (UniProt P61075)

Chain of TSSK1B (human) (Q9BXA7 whole entry, looked up): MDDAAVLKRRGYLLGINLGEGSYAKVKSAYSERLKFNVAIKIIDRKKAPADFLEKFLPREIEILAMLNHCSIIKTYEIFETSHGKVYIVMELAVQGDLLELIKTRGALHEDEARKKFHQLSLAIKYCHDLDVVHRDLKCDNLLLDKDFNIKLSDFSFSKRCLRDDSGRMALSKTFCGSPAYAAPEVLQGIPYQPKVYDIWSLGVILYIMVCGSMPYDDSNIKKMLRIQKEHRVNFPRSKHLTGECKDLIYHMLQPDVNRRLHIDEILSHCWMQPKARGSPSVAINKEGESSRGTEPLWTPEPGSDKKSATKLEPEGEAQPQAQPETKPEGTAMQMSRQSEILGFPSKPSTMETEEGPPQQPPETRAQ
Chain of STK38 (human) (Q15208 whole entry, looked up): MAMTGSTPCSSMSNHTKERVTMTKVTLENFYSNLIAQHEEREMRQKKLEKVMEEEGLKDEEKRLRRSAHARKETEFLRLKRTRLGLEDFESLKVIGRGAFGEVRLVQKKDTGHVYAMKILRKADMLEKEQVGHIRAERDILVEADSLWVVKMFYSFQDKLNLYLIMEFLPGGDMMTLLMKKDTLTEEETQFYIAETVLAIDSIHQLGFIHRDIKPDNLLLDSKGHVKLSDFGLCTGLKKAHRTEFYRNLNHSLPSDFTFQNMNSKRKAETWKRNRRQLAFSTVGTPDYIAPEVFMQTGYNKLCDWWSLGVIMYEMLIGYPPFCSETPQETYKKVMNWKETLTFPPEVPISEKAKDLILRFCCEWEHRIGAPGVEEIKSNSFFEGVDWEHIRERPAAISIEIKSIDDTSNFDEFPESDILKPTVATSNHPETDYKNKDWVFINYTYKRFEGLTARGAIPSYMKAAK
Chain of DMPK (human) (Q09013 whole entry, looked up): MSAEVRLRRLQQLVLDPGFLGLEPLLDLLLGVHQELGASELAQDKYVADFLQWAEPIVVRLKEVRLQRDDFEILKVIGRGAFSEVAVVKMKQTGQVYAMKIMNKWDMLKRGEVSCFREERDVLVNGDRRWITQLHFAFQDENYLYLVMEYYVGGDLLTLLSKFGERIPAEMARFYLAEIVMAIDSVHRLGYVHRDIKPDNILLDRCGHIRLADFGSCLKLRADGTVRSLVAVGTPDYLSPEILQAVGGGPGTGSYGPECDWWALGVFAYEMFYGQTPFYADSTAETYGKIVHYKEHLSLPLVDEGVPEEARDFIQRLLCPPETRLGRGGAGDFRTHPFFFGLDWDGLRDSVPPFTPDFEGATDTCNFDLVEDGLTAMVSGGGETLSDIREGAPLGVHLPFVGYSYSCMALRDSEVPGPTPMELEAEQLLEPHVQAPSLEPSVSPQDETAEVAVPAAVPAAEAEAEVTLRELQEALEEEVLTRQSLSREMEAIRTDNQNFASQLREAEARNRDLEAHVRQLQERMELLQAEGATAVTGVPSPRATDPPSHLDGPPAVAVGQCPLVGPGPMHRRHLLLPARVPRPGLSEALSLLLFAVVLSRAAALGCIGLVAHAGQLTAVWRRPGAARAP
Chain of TAOK3 (human) (Q9H2K8 whole entry, looked up): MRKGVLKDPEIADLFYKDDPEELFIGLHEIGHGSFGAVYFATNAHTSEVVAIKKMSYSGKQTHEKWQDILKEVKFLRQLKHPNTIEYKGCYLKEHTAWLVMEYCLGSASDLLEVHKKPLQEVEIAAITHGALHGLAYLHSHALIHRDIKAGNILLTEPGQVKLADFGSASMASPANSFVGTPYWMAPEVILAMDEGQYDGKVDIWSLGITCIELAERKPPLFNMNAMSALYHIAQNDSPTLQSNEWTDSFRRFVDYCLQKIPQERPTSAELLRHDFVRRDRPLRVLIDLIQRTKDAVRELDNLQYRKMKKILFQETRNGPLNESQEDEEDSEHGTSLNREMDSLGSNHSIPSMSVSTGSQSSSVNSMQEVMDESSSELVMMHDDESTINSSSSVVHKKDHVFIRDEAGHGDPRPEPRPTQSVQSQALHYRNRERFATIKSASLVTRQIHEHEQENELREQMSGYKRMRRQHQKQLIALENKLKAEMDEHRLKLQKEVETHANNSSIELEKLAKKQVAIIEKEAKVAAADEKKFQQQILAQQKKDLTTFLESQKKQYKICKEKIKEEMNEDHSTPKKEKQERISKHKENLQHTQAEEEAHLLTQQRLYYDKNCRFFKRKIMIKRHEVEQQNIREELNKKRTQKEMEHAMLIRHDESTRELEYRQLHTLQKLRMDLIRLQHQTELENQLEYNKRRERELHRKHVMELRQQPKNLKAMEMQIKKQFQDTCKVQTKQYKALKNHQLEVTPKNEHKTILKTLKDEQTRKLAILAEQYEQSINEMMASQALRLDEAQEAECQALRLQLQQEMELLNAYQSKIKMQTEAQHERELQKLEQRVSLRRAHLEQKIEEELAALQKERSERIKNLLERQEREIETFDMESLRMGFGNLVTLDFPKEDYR
Chain of MELK (human) (Q14680 whole entry, looked up): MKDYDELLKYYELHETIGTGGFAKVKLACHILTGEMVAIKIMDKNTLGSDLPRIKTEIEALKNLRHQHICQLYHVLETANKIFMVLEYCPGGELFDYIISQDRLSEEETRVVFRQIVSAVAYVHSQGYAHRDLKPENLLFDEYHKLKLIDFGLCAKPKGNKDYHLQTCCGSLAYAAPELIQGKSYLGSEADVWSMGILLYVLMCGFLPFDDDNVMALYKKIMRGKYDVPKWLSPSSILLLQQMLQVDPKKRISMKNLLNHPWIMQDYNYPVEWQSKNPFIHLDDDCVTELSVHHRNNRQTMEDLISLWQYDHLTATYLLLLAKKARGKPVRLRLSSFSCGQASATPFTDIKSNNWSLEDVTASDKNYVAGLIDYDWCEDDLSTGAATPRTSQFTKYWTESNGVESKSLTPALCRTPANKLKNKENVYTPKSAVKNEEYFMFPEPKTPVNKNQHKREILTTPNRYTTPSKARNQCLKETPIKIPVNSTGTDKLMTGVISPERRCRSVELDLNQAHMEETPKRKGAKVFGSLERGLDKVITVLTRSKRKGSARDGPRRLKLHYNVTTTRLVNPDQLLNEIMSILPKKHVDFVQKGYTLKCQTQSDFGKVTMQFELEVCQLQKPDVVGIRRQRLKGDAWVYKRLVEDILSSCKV
Chain of GAK (human) (O14976 whole entry, looked up): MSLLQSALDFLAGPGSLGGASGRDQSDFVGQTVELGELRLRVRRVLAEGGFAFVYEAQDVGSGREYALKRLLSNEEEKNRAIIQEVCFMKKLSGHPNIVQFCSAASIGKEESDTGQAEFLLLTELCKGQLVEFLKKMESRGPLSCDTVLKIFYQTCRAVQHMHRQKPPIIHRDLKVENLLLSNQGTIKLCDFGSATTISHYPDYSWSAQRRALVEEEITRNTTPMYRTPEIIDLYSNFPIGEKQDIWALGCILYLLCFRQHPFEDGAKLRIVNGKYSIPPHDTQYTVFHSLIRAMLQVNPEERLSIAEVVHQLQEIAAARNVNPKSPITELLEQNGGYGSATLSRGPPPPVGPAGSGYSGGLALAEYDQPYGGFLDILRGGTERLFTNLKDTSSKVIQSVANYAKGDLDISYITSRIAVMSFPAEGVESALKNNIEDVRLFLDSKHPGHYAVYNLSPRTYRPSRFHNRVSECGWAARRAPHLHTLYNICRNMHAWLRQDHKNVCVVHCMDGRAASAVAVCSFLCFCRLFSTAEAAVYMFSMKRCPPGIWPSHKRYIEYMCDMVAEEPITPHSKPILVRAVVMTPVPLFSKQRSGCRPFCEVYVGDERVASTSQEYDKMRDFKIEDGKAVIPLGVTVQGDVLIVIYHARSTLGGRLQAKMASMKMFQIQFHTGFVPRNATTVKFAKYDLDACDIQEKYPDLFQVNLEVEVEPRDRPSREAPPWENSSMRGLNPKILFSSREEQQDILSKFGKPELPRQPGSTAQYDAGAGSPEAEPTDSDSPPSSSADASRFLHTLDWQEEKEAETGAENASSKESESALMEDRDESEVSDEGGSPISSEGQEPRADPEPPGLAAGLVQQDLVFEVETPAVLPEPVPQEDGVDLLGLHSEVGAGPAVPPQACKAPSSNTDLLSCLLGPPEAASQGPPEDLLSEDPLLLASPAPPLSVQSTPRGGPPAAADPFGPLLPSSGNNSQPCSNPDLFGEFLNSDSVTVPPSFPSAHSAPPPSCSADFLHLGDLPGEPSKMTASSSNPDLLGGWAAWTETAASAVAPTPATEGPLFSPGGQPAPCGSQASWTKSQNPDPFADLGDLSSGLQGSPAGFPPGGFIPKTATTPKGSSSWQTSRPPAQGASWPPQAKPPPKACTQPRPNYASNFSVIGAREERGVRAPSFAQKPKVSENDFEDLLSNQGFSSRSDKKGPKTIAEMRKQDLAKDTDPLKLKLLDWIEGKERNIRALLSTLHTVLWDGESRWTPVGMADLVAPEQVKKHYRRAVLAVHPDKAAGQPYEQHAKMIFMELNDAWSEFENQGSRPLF
Chain of CSNK1A1L (human) (Q8N752 whole entry, looked up): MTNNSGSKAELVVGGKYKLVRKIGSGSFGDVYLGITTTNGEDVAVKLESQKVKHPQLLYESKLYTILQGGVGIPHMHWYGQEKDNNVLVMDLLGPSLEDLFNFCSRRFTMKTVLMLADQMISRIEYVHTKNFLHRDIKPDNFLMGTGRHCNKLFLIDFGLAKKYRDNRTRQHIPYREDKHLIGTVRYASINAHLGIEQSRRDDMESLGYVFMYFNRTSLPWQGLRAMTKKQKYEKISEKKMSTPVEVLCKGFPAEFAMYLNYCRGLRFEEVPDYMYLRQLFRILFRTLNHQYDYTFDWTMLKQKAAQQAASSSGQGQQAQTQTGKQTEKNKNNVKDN

SMILES | kinase still bound, per cent of control (RPS6KA6 KD1 (human)) [%] | kinase still bound, per cent of control (MELK (human)) [%] | kinase still bound, per cent of control (CAMK1D (human)) [%] | kinase still bound, per cent of control (TAOK3 (human)) [%] | kinase still bound, per cent of control (MAP4K3 (human)) [%] | kinase still bound, per cent of control (TSSK1B (human)) [%] | kinase still bound, per cent of control (PKMYT1 (human)) [%] | kinase still bound, per cent of control (SBK1 (human)) [%] | kinase still bound, per cent of control (GRK4 (human)) [%] | kinase still bound, per cent of control (NTRK2 (human)) [%] | kinase still bound, per cent of control (GAK (human)) [%] | kinase still bound, per cent of control (PRKCE (human)) [%] | kinase still bound, per cent of control (STK35 (human)) [%] | kinase still bound, per cent of control (PIM3 (human)) [%] | kinase still bound, per cent of control (MAP3K9 (human)) [%] | kinase still bound, per cent of control (RIPK1 (human)) [%] | kinase still bound, per cent of control (PRPF4B (human)) [%] | kinase still bound, per cent of control (FGFR1 (human)) [%] | kinase still bound, per cent of control (NTRK1 (human)) [%] | kinase still bound, per cent of control (PKN1 (human)) [%] | also measured
Cc1cn(-c2cc(C(=O)Nc3ccc(C)c(NC(=O)c4ccno4)c3)cc(C(F)(F)F)c2)cn1 | 100 | 100 | 100 | 100 | 100 | 100 | 100 | 100 | 100 | 100 | 100 | 100 | 100 | 100 | 100 | 100 | 100 | 100 | 100 | 100 | kinase still bound, per cent of control (LIMK1 (human)): 100%; kinase still bound, per cent of control (ACVRL1 (human)): 100%; kinase still bound, per cent of control (TEK (human)): 100%; kinase still bound, per cent of control (EPHA7 (human)): 100%; kinase still bound, per cent of control (CDK8 (human)): 100%; kinase still bound, per cent of control (CSNK1A1L (human)): 100%; kinase still bound, per cent of control [1]: 100%; kinase still bound, per cent of control (PIK3C2G (human)): 100%; kinase still bound, per cent of control (PIK3CB (human)): 100%; kinase still bound, per cent of control (PAK4 (human)): 100%; kinase still bound, per cent of control (STK38 (human)): 100%; kinase still bound, per cent of control (CDK18 (human)): 100%; kinase still bound, per cent of control (PIP5K1A (human)): 100%; kinase still bound, per cent of control (TYRO3 (human)): 100%; kinase still bound, per cent of control (TGFBR1 (human)): 100%; kinase still bound, per cent of control (DMPK (human)): 100%; kinase still bound, per cent of control (CAMK2A (human)): 100%
CC(=O)c1c(C)c2cnc(Nc3ccc(N4CCNCC4)cn3)nc2n(C2CCCC2)c1=O | 20 | 40 | 7.3 | 8.1 | 20 | 8 | 77 | 36 | 26 | 12 | 4.4 | 67 | 66 | 82 | 78 | 65 | 78 | 66 | 6.5 | 66 | kinase still bound, per cent of control (CDK13 (human)): 47%; kinase still bound, per cent of control (CRK2 (P.falciparum)): 19%; kinase still bound, per cent of control (CSNK1A1L (human)): 62%; kinase still bound, per cent of control [1]: 18%; kinase still bound, per cent of control (PIK3C2G (human)): 20%; kinase still bound, per cent of control (PIK3CB (human)): 7.3%; kinase still bound, per cent of control (STK38 (human)): 57%; kinase still bound, per cent of control (CDK18 (human)): 20%; kinase still bound, per cent of control (PIP5K1A (human)): 32%; kinase still bound, per cent of control (TYRO3 (human)): 93%; kinase still bound, per cent of control (DMPK (human)): 80%; kinase still bound, per cent of control (CAMK2A (human)): 3.2%
